Source: patent US10472315B2, “Inhibitors of methionine aminopeptidases and methods of treating disorders” (THE JOHNS HOPKINS UNIVERSITY, priority 2009, dated 2019)

Tested on: M. tuberculosis CDC1551 wild-type, control and MtMetAP1a/MtMetAP1c knock-in strains
Type: cell-based

O=C1C(Cl)=C(Cl)C(=O)c2ccccc21 [Compound 4, 2,3-dichloro-1,4-naphthoquinone]
growth of MtMetAP1a and MtMetAP1c knock-in strains: gained resistance | growth of wild-type and control M. tuberculosis strains: inhibited
